Source: US6737383B1, “Herbicidal oxadiazolidines” (priority 1999, dated 2004)

Experiments:
[1] = tested on: blackgrass; test: Test B pre/postemergence blackgrass; format: in vivo, Alopecurus myosuroides
In short: (§1)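 Test chemicals in a non-phytotoxic solvent mixture with surfactant were sprayed preemergence onto planted seeds and postemergence onto plants 2 to 18 cm tall (1- to 4-leaf stage). After twelve to sixteen days in a greenhouse, injury was visually rated against untreated controls from 0 (no effect) to 10 (complete control).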

[2] = tested on: surinam grass; test: Test B pre/postemergence surinam grass; format: in vivo, Brachiaria decumbens
In short: as §1

[3] = tested on: cocklebur; test: Test B pre/postemergence cocklebur; format: in vivo, Xanthium strumarium
In short: as §1

[4] = tested on: corn; test: Test B pre/postemergence corn; format: in vivo, Zea mays
In short: as §1

[5] = tested on: crabgrass; test: Test B pre/postemergence crabgrass; format: in vivo, Digitaria sanguinalis
In short: as §1

[6] = tested on: giant foxtail; test: Test B pre/postemergence giant foxtail; format: in vivo, Setaria faberii
In short: as §1

[7] = tested on: morningglory; test: Test B pre/postemergence morningglory; format: in vivo, Ipomoea hederacea; conditions: for Plant response rating, Morningglory: scale of 0 to 10 where 0 is no effect and 10 is complete control
In short: as §1

[8] = tested on: pigweed; test: Test B pre/postemergence pigweed; format: in vivo, Amaranthus retroflexus; conditions: for Plant response rating, Redroot pigweed: scale of 0 to 10 where 0 is no effect and 10 is complete control
In short: as §1

[9] = tested on: rape; test: Test B pre/postemergence rape; format: in vivo, Brassica napus; conditions: for Plant response rating, Rape: scale of 0 to 10 where 0 is no effect and 10 is complete control
In short: as §1

[10] = tested on: soybean; test: Test B pre/postemergence soybean; format: in vivo, Glycine max; conditions: for Plant response rating, Soybean: scale of 0 to 10 where 0 is no effect and 10 is complete control
In short: as §1

[11] = tested on: sugar beet; test: Test B pre/postemergence sugar beet; format: in vivo, Beta vulgaris; conditions: for Plant response rating, Sugarbeets: scale of 0 to 10 where 0 is no effect and 10 is complete control
In short: as §1

[12] = tested on: velvetleaf; test: Test B pre/postemergence velvetleaf; format: in vivo, Abutilon theophrasti; conditions: for Plant response rating, Velvetleaf: scale of 0 to 10 where 0 is no effect and 10 is complete control
In short: as §1

[13] = tested on: wheat; test: Test B pre/postemergence wheat; format: in vivo, Triticum aestivum; conditions: for Plant response rating, Wheat: scale of 0 to 10 where 0 is no effect and 10 is complete control
In short: as §1

[14] = tested on: wild oat; test: Test B pre/postemergence wild oat; format: in vivo, Avena fatua; conditions: for Plant response rating, Wild oats: scale of 0 to 10 where 0 is no effect and 10 is complete control
In short: as §1

[15] = tested on: purple nutsedge; test: Test B pre/postemergence purple nutsedge; format: in vivo, Cyperus rotundus; conditions: for Plant response rating, Nutsedge: scale of 0 to 10 where 0 is no effect and 10 is complete control
In short: as §1

[16] = tested on: rice; test: Test B flood test rice; format: in vivo, Oryza sativa
In short: (§2)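 Each value is a visual injury score relative to controls, with 10 meaning complete control and 0 no effect. Evaluation took place twelve to sixteen days after the 2-leaf-stage plants were treated and kept in the greenhouse.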

[17] = tested on: smallflower flatsedge; test: Test B flood test smallflower flatsedge; format: in vivo, Cyperus difformis
In short: as §2

[18] = tested on: duck salad; test: Test B flood test duck salad; format: in vivo, Heteranthera limosa
In short: as §2

[19] = tested on: bamyardgrass; test: Test B flood test barnyardgrass; format: in vivo, Echinochloa crus-galli
In short: as §2

[20] = Postemergence, Rate 250 g/ha, scale 0 to 10
[21] = Postemergence, Rate 500 g/ha, scale of 0 to 10 where 0 is no effect and 10 is complete control
[22] = Preemergence, Rate 62 g/ha, scale of 0 to 10 where 0 is no effect and 10 is complete control
[23] = Preemergence, Rate 125 g/ha, scale of 0 to 10 where 0 is no effect and 10 is complete control
[24] = Preemergence, Rate 250 g/ha, scale 0 to 10, 0 is no effect, 10 is complete control
[25] = Preemergence, Rate 500 g/ha, scale 0 to 10, 0 is no effect, 10 is complete control
[26] = Rate 62 g/ha, Postemergence, scale 0 to 10 (0 no effect, 10 complete control)
[27] = Rate 125 g/ha, Postemergence, scale 0 to 10, 0 is no effect, 10 is complete control
[28] = Rate 62 g/ha, flood test species, Pre-emergence, visual evaluation after twelve to sixteen days
[29] = Rate 125 g/ha, under heading Pre-emergence, flood test species, visual evaluation after twelve to sixteen days
[30] = Rate 250 g/ha, Pre-emergence (flood test species), scale 0 to 10, 0 is no effect, 10 is complete control
[31] = Rate 500 g/ha, Pre-emergence, flood test species, scale 0 to 10 (0 no effect, 10 complete control)

Compound: CC(=O)NCn1c(=O)on(C(=O)N(c2ccc(F)cc2)C(C)C)c1=O [Compound 473]
- Blackgrass plant response rating [1, 20]: 0
- Blackgrass plant response rating [1, 21]: 0
- Plant response rating, Blackgrass [1, 22]: 0
- Plant response rating, Blackgrass [1, 23]: 0
- Blackgrass plant response rating [1, 24]: 0
- Blackgrass plant response rating [1, 25]: 3
- Blackgrass plant response rating [1, 26]: 0
- Blackgrass plant response rating [1, 27]: 0
- B. signalgrass plant response rating ([2]; Postemergence, Rate 250 g/ha, scale 0 to 10, 0 no effect, 10 complete control): 0
- B. signalgrass plant response rating [2, 21]: 0
- Plant response rating, B. signalgrass [2, 22]: 0
- Plant response rating, B. signalgrass [2, 23]: 0
- B. signalgrass plant response rating [2, 24]: 0
- B. signalgrass plant response rating [2, 25]: 0
- B. signalgrass plant response rating [2, 26]: 0
- B. signalgrass plant response rating [2, 27]: 0
- Cocklebur plant response rating [3, 20]: 0
- Cocklebur plant response rating [3, 21]: 0
- Plant response rating, Cocklebur [3, 22]: 0
- Plant response rating, Cocklebur [3, 23]: 0
- Cocklebur plant response rating [3, 25]: 0
- Cocklebur plant response rating [3, 26]: 0
- Cocklebur plant response rating [3, 27]: 0
- Corn plant response rating [4, 20]: 0
- Corn plant response rating [4, 21]: 0
- Plant response rating, Corn [4, 22]: 0
- Plant response rating, Corn [4, 23]: 0
- Corn plant response rating [4, 24]: 0
- Corn plant response rating [4, 25]: 0
- Corn plant response rating [4, 26]: 0
- Corn plant response rating [4, 27]: 0
- Crabgrass plant response rating [5, 20]: 3
- Crabgrass plant response rating [5, 21]: 8
- Plant response rating, Crabgrass [5, 23]: 2
- Crabgrass plant response rating [5, 24]: 4
- Crabgrass plant response rating [5, 25]: 7
- Crabgrass plant response rating [5, 26]: 1
- Crabgrass plant response rating [5, 27]: 2
- Giant foxtail plant response rating [6, 20]: 6
- Giant foxtail plant response rating [6, 21]: 7
- Plant response rating, Giant foxtail [6, 22]: 2
- Plant response rating, Giant foxtail [6, 23]: 3
- Giant foxtail plant response rating [6, 24]: 4
- Giant foxtail plant response rating [6, 25]: 7
- Giant foxtail plant response rating [6, 26]: 1
- Giant foxtail plant response rating [6, 27]: 2
- Morningglory plant response rating [7, 20]: 2
- Plant response rating, Morningglory ([7]; Preemergence, Rate 62 g/ha): 0
- Plant response rating, Morningglory ([7]; Preemergence, Rate 125 g/ha): 0
- Morningglory plant response rating [7, 24]: 0
- Morningglory plant response rating [7, 25]: 0
- Morningglory plant response rating [7, 26]: 0
- Morningglory plant response rating [7, 27]: 1
- Redroot pigweed plant response rating [8, 20]: 0
- Plant response rating, Redroot pigweed ([8]; Preemergence, Rate 62 g/ha): 2
- Plant response rating, Redroot pigweed ([8]; Preemergence, Rate 125 g/ha): 10
- Redroot pigweed plant response rating [8, 24]: 10
- Redroot pigweed plant response rating [8, 25]: 10
- Redroot pigweed plant response rating [8, 26]: 0
- Redroot pigweed plant response rating [8, 27]: 0
- Rape plant response rating [9, 20]: 0
- Plant response rating, Rape ([9]; Preemergence, Rate 62 g/ha): 0
- Plant response rating, Rape ([9]; Preemergence, Rate 125 g/ha): 0
- Rape plant response rating [9, 24]: 0
- Rape plant response rating [9, 25]: 0
- Rape plant response rating [9, 26]: 0
- Rape plant response rating [9, 27]: 0
- Soybean plant response rating [10, 20]: 1
- Plant response rating, Soybean ([10]; Preemergence, Rate 62 g/ha): 0
- Plant response rating, Soybean ([10]; Preemergence, Rate 125 g/ha): 0
- Soybean plant response rating [10, 24]: 0
- Soybean plant response rating [10, 25]: 0
- Soybean plant response rating [10, 26]: 1
- Soybean plant response rating [10, 27]: 1
- Sugarbeets plant response rating [11, 20]: 0
- Plant response rating, Sugarbeets ([11]; Preemergence, Rate 62 g/ha): 0
- Plant response rating, Sugarbeets ([11]; Preemergence, Rate 125 g/ha): 0
- Sugarbeets plant response rating [11, 24]: 0
- Sugarbeets plant response rating [11, 25]: 0
- Sugarbeets plant response rating [11, 26]: 0
- Sugarbeets plant response rating [11, 27]: 0
- Velvetleaf plant response rating [12, 20]: 0
- Plant response rating, Velvetleaf ([12]; Preemergence, Rate 62 g/ha): 0
- Plant response rating, Velvetleaf ([12]; Preemergence, Rate 125 g/ha): 0
- Velvetleaf plant response rating [12, 24]: 0
- Velvetleaf plant response rating [12, 25]: 0
- Velvetleaf plant response rating [12, 26]: 0
- Velvetleaf plant response rating [12, 27]: 0
- Wheat plant response rating [13, 20]: 0
- Plant response rating, Wheat ([13]; Preemergence, Rate 62 g/ha): 0
- Plant response rating, Wheat ([13]; Preemergence, Rate 125 g/ha): 0
- Wheat plant response rating [13, 24]: 0
- Wheat plant response rating [13, 25]: 0
- Wheat plant response rating [13, 26]: 0
- Wheat plant response rating [13, 27]: 0
- Wild oats plant response rating [14, 20]: 0
- Plant response rating, Wild oats ([14]; Preemergence, Rate 62 g/ha): 0
- Plant response rating, Wild oats ([14]; Preemergence, Rate 125 g/ha): 0
- Wild oats plant response rating [14, 24]: 0
- Wild oats plant response rating [14, 25]: 0
- Wild oats plant response rating [14, 26]: 0
- Wild oats plant response rating [14, 27]: 0
- Nutsedge plant response rating [15, 20]: 0
- Plant response rating, Nutsedge ([15]; Preemergence, Rate 62 g/ha): 0
- Plant response rating, Nutsedge ([15]; Preemergence, Rate 125 g/ha): 0
- Nutsedge plant response rating [15, 24]: 0
- Nutsedge plant response rating [15, 26]: 0
- Nutsedge plant response rating [15, 27]: 0
- Plant response rating, Rice (0 to 10 scale, 0 is no effect, 10 is complete control) [16, 28]: 0
- Rice plant response rating (0 to 10 scale, 0 is no effect, 10 is complete control) [16, 29]: 0
- Rice plant response rating [16, 30]: 0
- Rice plant response rating [16, 31]: 0
- Plant response rating, S. Flatsedge (0 to 10 scale, 0 is no effect, 10 is complete control) [17, 28]: 0
- S. Flatsedge plant response rating (0 to 10 scale, 0 is no effect, 10 is complete control) [17, 29]: 0
- S. Flatsedge plant response rating [17, 30]: 0
- S. Flatsedge plant response rating [17, 31]: 0
- Plant response rating, Ducksalad (0 to 10 scale, 0 is no effect, 10 is complete control) [18, 28]: 0
- Ducksalad plant response rating (0 to 10 scale, 0 is no effect, 10 is complete control) [18, 29]: 0
- Ducksalad plant response rating [18, 30]: 0
- Ducksalad plant response rating [18, 31]: 0
- Plant response rating, Barnyardgrass (0 to 10 scale, 0 is no effect, 10 is complete control) [19, 28]: 0
- Barnyardgrass plant response rating (0 to 10 scale, 0 is no effect, 10 is complete control) [19, 29]: 0
- Barnyardgrass plant response rating [19, 30]: 0
- Barnyardgrass plant response rating [19, 31]: 0
